The target in one experiment is T1, FLT3 (Homo sapiens, UniProt P36888).
T1 construct: made in house
T1 sequence (P36888 27-993): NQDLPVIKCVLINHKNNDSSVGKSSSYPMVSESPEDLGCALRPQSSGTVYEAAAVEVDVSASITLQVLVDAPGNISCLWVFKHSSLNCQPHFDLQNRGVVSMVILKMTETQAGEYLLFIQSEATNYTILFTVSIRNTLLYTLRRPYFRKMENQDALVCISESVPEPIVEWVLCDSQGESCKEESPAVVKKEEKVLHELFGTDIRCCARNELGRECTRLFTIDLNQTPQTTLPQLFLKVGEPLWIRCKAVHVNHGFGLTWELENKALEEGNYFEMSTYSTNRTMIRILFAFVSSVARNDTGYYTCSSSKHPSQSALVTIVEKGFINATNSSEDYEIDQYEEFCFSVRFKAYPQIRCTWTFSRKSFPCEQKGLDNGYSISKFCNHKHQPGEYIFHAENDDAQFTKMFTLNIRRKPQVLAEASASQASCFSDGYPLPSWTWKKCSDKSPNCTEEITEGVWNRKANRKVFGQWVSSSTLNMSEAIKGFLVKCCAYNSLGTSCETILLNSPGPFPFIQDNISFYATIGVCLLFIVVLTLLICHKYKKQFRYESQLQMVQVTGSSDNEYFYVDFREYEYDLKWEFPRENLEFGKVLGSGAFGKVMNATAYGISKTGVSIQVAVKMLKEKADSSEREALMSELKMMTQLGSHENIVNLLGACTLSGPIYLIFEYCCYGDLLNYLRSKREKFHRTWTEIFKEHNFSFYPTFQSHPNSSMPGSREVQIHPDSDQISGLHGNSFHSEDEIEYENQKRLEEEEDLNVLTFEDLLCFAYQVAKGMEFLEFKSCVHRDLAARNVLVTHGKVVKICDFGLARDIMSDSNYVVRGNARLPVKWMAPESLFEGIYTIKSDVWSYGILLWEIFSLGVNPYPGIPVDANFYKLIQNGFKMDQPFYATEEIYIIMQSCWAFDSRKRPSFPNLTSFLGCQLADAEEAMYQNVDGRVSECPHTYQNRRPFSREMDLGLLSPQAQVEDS
Put plainly: Competition binding assay, FLT3 Kd. The procedure, abridged: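 Read-out is quantitative PCR of kinase recovered from affinity beads after competition with test compound. Binding reached equilibrium over 1 hour at room temperature; Kd values come from eleven-point threefold serial dilutions.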

Another experiment deals with CSF1R (Homo sapiens, UniProt P07333). Put plainly: HEK293 CSF1R phosphorylation MSD assay. The following applies: 2 h compound, human M-CSF 50 ng/mL for 5 min; read-out: HEK293 pCSF1R M-CSF MSD:IC50. It counts as cell-based. Also noted: expressed in transfected cells; host or cells: HEK293. The procedure, abridged:
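Ligand-induced CSF1R autophosphorylation was measured by MSD sandwich assay: CSF1R-FKBP from lysates captured via FK506, anti-phosphotyrosine readout. Cells were exposed to compound for 2 h (9-point, half-log, 0.5% DMSO) before 5 min 50 ng/mL M-CSF. Reported IC50 is the mean of duplicate-plate IC50s relative to DMSO control.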

Here are results for 24 molecules from US9938261B2, “Heterocyclic compounds and methods of use thereof” (AMBIT BIOSCIENCES CORPORATION, priority 2011, dated 2018).

Chain of CSF1R (P07333 20-972): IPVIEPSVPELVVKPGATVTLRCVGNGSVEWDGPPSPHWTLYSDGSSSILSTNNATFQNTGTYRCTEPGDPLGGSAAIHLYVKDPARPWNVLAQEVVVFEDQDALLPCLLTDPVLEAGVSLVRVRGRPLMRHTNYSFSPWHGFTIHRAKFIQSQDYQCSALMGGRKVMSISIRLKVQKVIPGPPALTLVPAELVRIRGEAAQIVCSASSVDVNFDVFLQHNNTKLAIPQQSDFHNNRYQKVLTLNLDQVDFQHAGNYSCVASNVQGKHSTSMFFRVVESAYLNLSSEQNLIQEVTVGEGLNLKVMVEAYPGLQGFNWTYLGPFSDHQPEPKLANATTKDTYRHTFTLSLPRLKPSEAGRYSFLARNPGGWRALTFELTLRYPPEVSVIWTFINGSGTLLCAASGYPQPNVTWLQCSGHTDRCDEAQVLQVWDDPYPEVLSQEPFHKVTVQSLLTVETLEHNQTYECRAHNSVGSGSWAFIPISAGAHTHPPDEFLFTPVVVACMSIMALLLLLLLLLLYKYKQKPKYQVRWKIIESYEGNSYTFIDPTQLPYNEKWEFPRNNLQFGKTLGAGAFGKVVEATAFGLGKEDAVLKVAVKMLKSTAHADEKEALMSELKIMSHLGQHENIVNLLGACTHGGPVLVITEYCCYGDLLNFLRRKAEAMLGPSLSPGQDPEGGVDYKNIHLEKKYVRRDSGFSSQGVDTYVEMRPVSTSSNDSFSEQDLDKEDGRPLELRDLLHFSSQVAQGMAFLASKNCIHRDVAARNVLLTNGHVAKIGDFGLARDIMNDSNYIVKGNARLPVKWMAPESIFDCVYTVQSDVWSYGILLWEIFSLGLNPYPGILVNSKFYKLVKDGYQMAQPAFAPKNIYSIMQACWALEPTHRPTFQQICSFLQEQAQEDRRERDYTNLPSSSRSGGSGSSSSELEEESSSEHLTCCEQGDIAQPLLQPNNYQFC

`COc1cc2ncn(Cc3ccc4nc(N[C@@H]5CCCCC[C@H]5O)sc4c3)c2cc1OC` (racemic) [Example 50, (±)-2-((6-((5,6-dimethoxy-1H-benzo[d]imidazol-1-yl)methyl)benzo[d]thiazol-2-yl)amino)cycloheptanol] yielded a Kd on FLT3 of at most 200 nM. In addition, the IC50 on CSF1R was at most 50 nM.
`CS(=O)(=O)O.O[C@@H]1CCCC[C@H]1Nc1nc2ccc(Cn3cnc4cccnc43)cc2s1` [Example 3, (1R,2R)-2-((6-((3H-imidazo[4,5-b]pyridin-3-yl)methyl)benzo[d]thiazol-2-yl)amino)cyclohexanol methanesulfonic acid] yielded a Kd on FLT3 of 1000 to 5000 nM. In addition, the IC50 at CSF1R lay within 50 to 200 nM.
The corresponding values for `COc1cc2ncn(Cc3ccc4nc(N[C@@H](C)C5CCCCC5)sc4c3)c2cc1OC` [Example 33, (S)—N-(1-cyclohexylethyl)-6-((5,6-dimethoxy-1H-benzo[d]imidazol-1-yl)methyl)benzo[d]thiazol-2-amine] are 200 to 1000 nM and 50 to 200 nM.
For `COc1cc2ncn(Cc3ccc4nc(N[C@@H]5CCCC[C@H]5O)oc4c3)c2cc1OC` [Example 34, (1R,2R)-2-((6-((5,6-dimethoxy-1H-benzo[d]imidazol-1-yl)methyl)benzo[d]oxazol-2-yl)amino)cyclohexanol], in that order: at most 200 nM and 50 to 200 nM.
The corresponding values for `COc1cc2ncn(Cc3ccc4nc(NCC5CCCCC5)oc4c3)c2cc1OC` [Example 35, N-(cyclohexylmethyl)-6-((5,6-dimethoxy-1H-benzo[d]imidazol-1-yl)methyl)benzo[d]oxazol-2-amine] are at most 200 nM and at most 50 nM.
Consider `Cn1cc(-c2cn(Cc3ccc4nc(N[C@@H]5CCCC[C@H]5O)sc4c3)cn2)cn1` [Example 36, (1R,2R)-2-((6-((4-(1-methyl-1H-pyrazol-4-yl)-1H-imidazol-1-yl)methyl)benzo[d]thiazol-2-yl)amino)cyclohexanol], for which, on FLT3, the dissociation constant (Kd) is over 5000 nM. Besides, the concentration for half-maximal inhibition (IC50) on CSF1R was in the range of 50 to 200 nM.
The corresponding values for `CNC(=O)c1cn(Cc2ccc3nc(N[C@@H]4CCCC[C@H]4O)sc3c2)cn1` [Example 37, 1-((2-(((1R,2R)-2-hydroxycyclohexyl)amino)benzo[d]thiazol-6-yl)methyl)-N-methyl-1H-imidazole-4-carboxamide] are over 5000 nM and over 500 nM.
`O[C@@H]1CCCC[C@H]1Nc1nc2ccc(Cc3cnc4ccccn34)cc2s1` [Example 38, (1R,2R)-2-((6-(imidazo[1,2-a]pyridin-3-ylmethyl)benzo[d]thiazol-2-yl)amino)cyclohexanol]: the Kd on FLT3 is over 5000 nM. Moreover, the 50% inhibitory concentration (IC50) at CSF1R lay in the range of 200 to 500 nM.
The corresponding values for `Cn1cc(-c2cnc3c(c2)ncn3Cc2ccc3nc(N[C@@H]4CCCC[C@H]4O)sc3c2)cn1` [Example 39, (1R,2R)-2-((6-((6-(1-methyl-1H-pyrazol-4-yl)-3H-imidazo[4,5-b]pyridin-3-yl)methyl)benzo[d]thiazol-2-yl)amino)cyclohexanol] are at most 200 nM and at most 50 nM.
The corresponding values for `O[C@@H]1CCCC[C@H]1Nc1nc2ccc(Cn3cnc4cc(-c5cccnc5)cnc43)cc2s1` [Example 40, (1R,2R)-2-((6-((6-(pyridin-3-yl)-3H-imidazo[4,5-b]pyridin-3-yl)methyl)benzo[d]thiazol-2-yl)amino)cyclohexanol] are at most 200 nM and at most 50 nM.
`COc1cc2c(cc1Br)ncn2Cc1ccc2nc(N[C@@H]3CCCC[C@H]3O)sc2c1` [Example 41, (1R,2R)-2-((6-((5-bromo-6-methoxy-1H-benzo[d]imidazol-1-yl)methyl)benzo[d]thiazol-2-yl)amino)cyclohexanol] gave a Kd on FLT3 of 200 to 1000 nM. Besides, the half-inhibitory concentration (IC50) at CSF1R was 50 to 200 nM.
For `O[C@@H]1Cc2ccccc2[C@H]1Nc1nc2ccc(Cn3cnc4cc(Br)cnc43)cc2s1` [Example 42, (1R,2R)-1-((6-((6-bromo-3H-imidazo[4,5-b]pyridin-3-yl)methyl)benzo[d]thiazol-2-yl)amino)-2,3-dihydro-1H-inden-2-ol], in that order: 1000 to 5000 nM and 50 to 200 nM.
For `N#Cc1cnc2c(c1)ncn2Cc1ccc2nc(N[C@@H]3CCCC[C@H]3O)sc2c1` [Example 43, 3-((2-(((1R,2R)-2-hydroxycyclohexyl)amino)benzo[d]thiazol-6-yl)methyl)-3H-imidazo[4,5-b]pyridine-6-carbonitrile], in that order: 1000 to 5000 nM and 50 to 200 nM.
For `COc1ccn2c(Cc3ccc4nc(N[C@@H]5CCCC[C@H]5O)sc4c3)cnc2c1` [Example 44, (1R,2R)-2-((6-((7-methoxyimidazo[1,2-a]pyridin-3-yl)methyl)benzo[d]thiazol-2-yl)amino)cyclohexanol], in that order: over 5000 nM and 50 to 200 nM.
As for `O[C@@H]1CCCC[C@H]1Nc1nc2ccc(Cn3cnc4cc(C5CC5)cnc43)cc2s1` [Example 45, (1R,2R)-2-((6-((6-cyclopropyl-3H-imidazo[4,5-b]pyridin-3-yl)methyl)benzo[d]thiazol-2-yl)amino)cyclohexanol], on FLT3, the Kd was 200 to 1000 nM. The concentration for half-maximal inhibition (IC50) on CSF1R is at most 50 nM.
For `O[C@@H]1Cc2ccccc2[C@H]1Nc1nc2ccc(Cn3cnc4cccnc43)cc2s1` [Example 46, (1R,2R)-1-((6-((3H-imidazo[4,5-b]pyridin-3-yl)methyl)benzo[d]thiazol-2-yl)amino)-2,3-dihydro-1H-inden-2-ol], in that order: 1000 to 5000 nM and 50 to 200 nM.
For `COc1cc2ncn(Cc3ccc4nc(N[C@@H]5CCCC[C@H]5O)sc4c3)c2cc1Br` [Example 47, (1R,2R)-2-((6-((6-bromo-5-methoxy-1H-benzo[d]imidazol-1-yl)methyl)benzo[d]thiazol-2-yl)amino)cyclohexanol], in that order: 200 to 1000 nM and 50 to 200 nM.
For `O[C@@H]1CCCC[C@H]1Nc1nc2ccc(Cn3cnc4cncnc43)cc2s1` [Example 48, (1R,2R)-2-((6-((9H-purin-9-yl)methyl)benzo[d]thiazol-2-yl)amino)cyclohexanol], in that order: over 5000 nM and 50 to 200 nM.
Turning to `COc1cc2c(cc1Br)ncn2Cc1ccc2nc(N[C@@H]3c4ccccc4C[C@H]3O)sc2c1` [Example 49, (1R,2R)-1-((6-((5-bromo-6-methoxy-1H-benzo[d]imidazol-1-yl)methyl)benzo[d]thiazol-2-yl)amino)-2,3-dihydro-1H-inden-2-ol], at FLT3, the Kd was in the range of 1000 to 5000 nM. Moreover, the IC50 on CSF1R is 200 to 500 nM.
For `COc1cc2c(cc1-c1cnn(C)c1)ncn2Cc1ccc2nc(N[C@@H]3CCCC[C@H]3O)sc2c1` [Example 51, (1R,2R)-2-((6-((6-methoxy-5-(1-methyl-1H-pyrazol-4-yl)-1H-benzo[d]imidazol-1-yl)methyl)benzo[d]thiazol-2-yl)amino)cyclohexanol], in that order: at most 200 nM and at most 50 nM.
The corresponding values for `COc1cc2ncn(Cc3ccc4nc(N[C@@H]5CCCC[C@H]5O)sc4c3)c2cc1-c1cnn(C)c1` [Example 52, (1R,2R)-2-((6-((5-methoxy-6-(1-methyl-1H-pyrazol-4-yl)-1H-benzo[d]imidazol-1-yl)methyl)benzo[d]thiazol-2-yl)amino)cyclohexanol] are at most 200 nM and at most 50 nM.
Molecule `COc1cc2ncn(Cc3ccc4nc(N[C@@H]5CCCC[C@H]5O)sc4c3)c2cc1C#N` [Example 53, 1-((2-(((1R,2R)-2-hydroxycyclohexyl)amino)benzo[d]thiazol-6-yl)methyl)-5-methoxy-1H-benzo[d]imidazole-6-carbonitrile] had a Kd at FLT3 of 1000 to 5000 nM. Besides, the 50% inhibitory concentration (IC50) at CSF1R was at most 50 nM.
The molecule `O=C1CCCC[C@H]1Nc1nc2ccc(Cn3cnc4cccnc43)cc2s1` [Example 54, (R)-2-((6-((3H-imidazo[4,5-b]pyridin-3-yl)methyl)benzo[d]thiazol-2-yl)amino)cyclohexanone] showed a Kd on FLT3 of over 5000 nM. The IC50 on CSF1R lay in the range of 50 to 200 nM.
The corresponding values for `O[C@@H]1CCCC[C@H]1Nc1nc2ccc(Cn3cnc4cc(Cl)cnc43)cc2s1` [Example 55, (1R,2R)-2-((6-((6-chloro-3H-imidazo[4,5-b]pyridin-3-yl)methyl)benzo[d]thiazol-2-yl)amino)cyclohexanol] are 1000 to 5000 nM and at most 50 nM.
